Test results as given in US20230085307A1, “PYRIDAZINONE COMPOUND AND HERBICIDE” (NISSAN CHEMICAL CORPORATION, priority 2019, published 2023).

Key:
southern crabgrass = test: Test Example 5: herbicidal effect by foliage application, plastic box (Table 20, symbol F); format: in vivo, southern crabgrass (Digitaria ciliaris); settings: for herbicidal effect on F: southern crabgrass (evaluation grade 0-5): 320 g/ha, foliage application after 14-day growth, evaluated three weeks after application
Procedure, shortened: (§1)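 Sow seeds spot-wise in sterilized diluvial soil; cover with ~1.5 cm soil. Grow 14 days in greenhouse, 25° C. to 30° C. Spray foliage with emulsion diluted to predetermined amount. Rate effect after 3 weeks.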

rice flat sedge = test: Test Example 3: herbicidal effect by foliage application, Wagner pot (Table 18, symbol E); format: in vivo, rice flat sedge (Cyperus iria); settings: for herbicidal effect on rice flat sedge (E): 320 g/ha
Procedure, shortened: (§2)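 Plants were sown in alluvial soil held under 0.1–0.5 cm standing water and grown 14 days in a greenhouse at 25–30 °C. An emulsifiable formulation, water-diluted to the set dose, was then sprayed onto the foliage, and effects were scored three weeks later using previously defined criteria.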

Japanese bulrush = test: Test Example 2: herbicidal activity, application during weed generation under submerged conditions (Table 17, symbol B); format: in vivo, Japanese bulrush (Schoenoplectus juncoides); settings: application during weed generation, submerged conditions
Protocol: (§3) [Test Example 2] Herbicidal Activity Test by Application during Weed Generation under Submerged Conditions After alluvial soil was placed into 1/10000 are of Wagner pot, water was poured and mixed to form a submerged condition having a water depth of 4 cm. Seeds of late watergrass, Japanese bulrush, and oval-leafed pondweed were sowed in a mixed manner in the aforementioned pot, and the pot was placed in a greenhouse at 25° C. to 30° C. for growth of the plants. When late watergrass, Japanese bulrush, and oval-leafed pondweed were grown to one leaf stage to two leaf stage, the emulsion agent of the compound of the present invention prepared according to Formulation Example 2 was diluted with water so as to achieve a predetermined herbicide amount, and the diluted emulsion agent was applied to the surface of the water. Three weeks after the herbicide application, the effect of the herbicide on each plant was evaluated according to the criteria of Test Example 1.

barnyard grass [1] = test: Test Example 5: herbicidal effect by foliage application, plastic box (Table 20, symbol H); format: in vivo, barnyard grass (Echinochloa crus-galli); settings: for herbicidal effect on H: barnyard grass (evaluation grade 0-5): 320 g/ha, foliage application after 14-day growth, evaluated three weeks after application
Procedure, shortened: as §1

persian speedwell = test: Test Example 5: herbicidal effect by foliage application, plastic box (Table 20, symbol R); format: in vivo, Persian speedwell (Veronica persica); settings: for herbicidal effect on R: persian speedwell (evaluation grade 0-5): 320 g/ha, foliage application after 14-day growth, evaluated three weeks after application
Procedure, shortened: as §1

blackgrass = test: Test Example 5: herbicidal effect by foliage application, plastic box (Table 20, symbol J); format: in vivo, blackgrass (Alopecurus myosuroides); settings: for herbicidal effect on J: blackgrass (evaluation grade 0-5): 320 g/ha, foliage application after 14-day growth, evaluated three weeks after application
Procedure, shortened: as §1

redroot pigweed = test: Test Example 5: herbicidal effect by foliage application, plastic box (Table 20, symbol N); format: in vivo, redroot pigweed (Amaranthus retroflexus); settings: for herbicidal effect on N: redroot pigweed (evaluation grade 0-5): 320 g/ha, foliage application after 14-day growth, evaluated three weeks after application
Procedure, shortened: as §1

Italian ryegrass = test: Test Example 5: herbicidal effect by foliage application, plastic box (Table 20, symbol K); format: in vivo, Italian ryegrass (Lolium multiflorum); settings: for herbicidal effect on K: Italian ryegrass (evaluation grade 0-5): 320 g/ha, foliage application after 14-day growth, evaluated three weeks after application
Procedure, shortened: as §1

oval-leafed pondweed = test: Test Example 2: herbicidal activity, application during weed generation under submerged conditions (Table 17, symbol C); format: in vivo, oval-leafed pondweed (Monochoria vaginalis); settings: application during weed generation, submerged conditions
Protocol: as §3

lambsquarters = test: Test Example 5: herbicidal effect by foliage application, plastic box (Table 20, symbol O); format: in vivo, lambsquarters (Chenopodium album); settings: for herbicidal effect on O: lambsquarters (evaluation grade 0-5): 320 g/ha, foliage application after 14-day growth, evaluated three weeks after application
Procedure, shortened: as §1

Chinese sprangletop = test: Test Example 3: herbicidal effect by foliage application, Wagner pot (Table 18, symbol D); format: in vivo, chinese sprangletop (Leptochloa chinensis); settings: for herbicidal effect on Chinese sprangletop (D): 320 g/ha
Procedure, shortened: as §2

late watergrass = test: Test Example 2: herbicidal activity, application during weed generation under submerged conditions (Table 17, symbol A); format: in vivo, late watergrass (Echinochloa oryzicola); settings: application during weed generation, submerged conditions
Protocol: as §3

windgrass = test: Test Example 5: herbicidal effect by foliage application, plastic box (Table 20, symbol L); format: in vivo, windgrass (Apera spica-venti); settings: for herbicidal effect on L: windgrass (evaluation grade 0-5): 320 g/ha, foliage application after 14-day growth, evaluated three weeks after application
Procedure, shortened: as §1

chickweed = test: Test Example 5: herbicidal effect by foliage application, plastic box (Table 20, symbol P); format: in vivo, common chickweed (Stellaria media); settings: for herbicidal effect on P: chickweed (evaluation grade 0-5): 320 g/ha, foliage application after 14-day growth, evaluated three weeks after application
Procedure, shortened: as §1

velvetleaf = test: Test Example 5: herbicidal effect by foliage application, plastic box (Table 20, symbol M); format: in vivo, velvetleaf (Abutilon theophrasti); settings: for herbicidal effect on M: velvetleaf (evaluation grade 0-5): 320 g/ha, foliage application after 14-day growth, evaluated three weeks after application
Procedure, shortened: as §1

wild oat = test: Test Example 5: herbicidal effect by foliage application, plastic box (Table 20, symbol I); format: in vivo, wild oat (Avena fatua); settings: for herbicidal effect on I: wild oat (evaluation grade 0-5): 320 g/ha, foliage application after 14-day growth, evaluated three weeks after application
Procedure, shortened: as §1

barnyard grass [2] = test: Test Example 3: herbicidal effect by foliage application, Wagner pot (Table 18, symbol H); format: in vivo, barnyard grass (Echinochloa crus-galli); settings: for herbicidal effect on barnyard grass (H): 320 g/ha
Procedure, shortened: as §2

green foxtail = test: Test Example 5: herbicidal effect by foliage application, plastic box (Table 20, symbol G); format: in vivo, green foxtail (Setaria viridis); settings: for herbicidal effect on G: green foxtail (evaluation grade 0-5): 320 g/ha, foliage application after 14-day growth, evaluated three weeks after application
Procedure, shortened: as §1

[3] = foliage application, 285 g/ha, three weeks after application
[4] = amount of applied herbicide 285 g/ha

Row | Structure (SMILES) | herbicidal effect on F: southern crabgrass (evaluation grade 0-5) (southern crabgrass) | herbicidal effect on rice flat sedge (E) (rice flat sedge) | herbicidal effect rating, B: Japanese bulrush (Japanese bulrush; AAH 320 g/ha) | herbicidal effect on H: barnyard grass (evaluation grade 0-5) (barnyard grass [1]) | herbicidal effect on R: persian speedwell (evaluation grade 0-5) (persian speedwell) | herbicidal effect on J: blackgrass (evaluation grade 0-5) (blackgrass) | herbicidal effect on N: redroot pigweed (evaluation grade 0-5) (redroot pigweed) | herbicidal effect on K: Italian ryegrass (evaluation grade 0-5) (Italian ryegrass) | herbicidal effect rating, C: oval-leafed pondweed (oval-leafed pondweed; AAH 320 g/ha) | herbicidal effect on O: lambsquarters (evaluation grade 0-5) (lambsquarters) | herbicidal effect on Chinese sprangletop (D) (Chinese sprangletop) | herbicidal effect rating, A: late watergrass (late watergrass; AAH 320 g/ha) | herbicidal effect on L: windgrass (evaluation grade 0-5) (windgrass) | herbicidal effect on P: chickweed (evaluation grade 0-5) (chickweed) | herbicidal effect on M: velvetleaf (evaluation grade 0-5) (velvetleaf) | herbicidal effect on I: wild oat (evaluation grade 0-5) (wild oat) | herbicidal effect on barnyard grass (H) (barnyard grass [2]) | herbicidal effect on G: green foxtail (evaluation grade 0-5) (green foxtail) | also measured
1 | CCOC(=O)OC(C)Oc1c(C)nn(C)c(=O)c1-c1c(-c2ccccc2OC)sc2cc(F)ccc12 (stereo not drawn) [3-029] |  |  |  |  |  |  |  |  |  |  |  |  |  |  |  |  |  |  | F: southern crabgrass, herbicidal effect grade (southern crabgrass; [3]): 3 (Herbicidal rate of 40% or more and less than 70%); herbicidal effect on E: rice flat sedge (rice flat sedge; [4]): 5 (Herbicidal rate of 90% or more (almost completely withered)); herbicidal effect rating, B: Japanese bulrush (Japanese bulrush; AAH 285 g/ha): 3 (Herbicidal rate of 40% or more and less than 70%); H: barnyard grass, herbicidal effect grade (barnyard grass [1]; [3]): 4 (Herbicidal rate of 70% or more and less than 90%); R: persian speedwell, herbicidal effect grade (persian speedwell; [3]): 0 (Herbicidal rate of 5% or less (almost no effect)); J: blackgrass, herbicidal effect grade (blackgrass; [3]): 4 (Herbicidal rate of 70% or more and less than 90%); N: redroot pigweed, herbicidal effect grade (redroot pigweed; [3]): 5 (Herbicidal rate of 90% or more (almost completely withered)); K: Italian ryegrass, herbicidal effect grade (Italian ryegrass; [3]): 3 (Herbicidal rate of 40% or more and less than 70%); herbicidal effect rating, C: oval-leafed pondweed (oval-leafed pondweed; AAH 285 g/ha): 1 (Herbicidal rate of 5% or more and less than 20%); O: lambsquarters, herbicidal effect grade (lambsquarters; [3]): 3 (Herbicidal rate of 40% or more and less than 70%); herbicidal effect on D: Chinese sprangletop (Chinese sprangletop; [4]): 3 (Herbicidal rate of 40% or more and less than 70%); herbicidal effect rating, A: late watergrass (late watergrass; AAH 285 g/ha): 0 (Herbicidal rate of 5% or less (almost no effect)); L: windgrass, herbicidal effect grade (windgrass; [3]): 4 (Herbicidal rate of 70% or more and less than 90%); P: chickweed, herbicidal effect grade (chickweed; [3]): 4 (Herbicidal rate of 70% or more and less than 90%); M: velvetleaf, herbicidal effect grade (velvetleaf; [3]): 5 (Herbicidal rate of 90% or more (almost completely withered)); I: wild oat, herbicidal effect grade (wild oat; [3]): 1 (Herbicidal rate of 5% or more and less than 20%); herbicidal effect on H: barnyard grass (barnyard grass [2]; [4]): 5 (Herbicidal rate of 90% or more (almost completely withered)); G: green foxtail, herbicidal effect grade (green foxtail; [3]): 5 (Herbicidal rate of 90% or more (almost completely withered))
2 | CCCC(=O)Oc1c(C)nn(C)c(=O)c1-c1c(-c2ccc(Cl)cc2)sc2c(Cl)cccc12 [4-018] | 0 (Herbicidal rate of 5% or less (almost no effect)) | 3 (Herbicidal rate of 40% or more and less than 70%) | 3 (Herbicidal rate of 40% or more and less than 70%) | 0 (Herbicidal rate of 5% or less (almost no effect)) | 4 (Herbicidal rate of 70% or more and less than 90%) | 4 (Herbicidal rate of 70% or more and less than 90%) | 3 (Herbicidal rate of 40% or more and less than 70%) | 3 (Herbicidal rate of 40% or more and less than 70%) | 3 (Herbicidal rate of 40% or more and less than 70%) | 0 (Herbicidal rate of 5% or less (almost no effect)) | 4 (Herbicidal rate of 70% or more and less than 90%) | 0 (Herbicidal rate of 5% or less (almost no effect)) | 5 (Herbicidal rate of 90% or more (almost completely withered)) | 5 (Herbicidal rate of 90% or more (almost completely withered)) | 4 (Herbicidal rate of 70% or more and less than 90%) | 3 (Herbicidal rate of 40% or more and less than 70%) | 4 (Herbicidal rate of 70% or more and less than 90%) | 0 (Herbicidal rate of 5% or less (almost no effect)) | 
3 | CCCC(=O)Oc1c(C)nn(C)c(=O)c1-c1c(-c2ccc(C(F)(F)F)cc2F)sc2c(Cl)cccc12 [4-038] | 0 (Herbicidal rate of 5% or less (almost no effect)) | 4 (Herbicidal rate of 70% or more and less than 90%) | 3 (Herbicidal rate of 40% or more and less than 70%) | 0 (Herbicidal rate of 5% or less (almost no effect)) | 4 (Herbicidal rate of 70% or more and less than 90%) | 0 (Herbicidal rate of 5% or less (almost no effect)) | 0 (Herbicidal rate of 5% or less (almost no effect)) | 4 (Herbicidal rate of 70% or more and less than 90%) | 0 (Herbicidal rate of 5% or less (almost no effect)) | 0 (Herbicidal rate of 5% or less (almost no effect)) | 5 (Herbicidal rate of 90% or more (almost completely withered)) | 2 (Herbicidal rate of 20% or more and less than 40%) | 5 (Herbicidal rate of 90% or more (almost completely withered)) | 4 (Herbicidal rate of 70% or more and less than 90%) | 0 (Herbicidal rate of 5% or less (almost no effect)) | 2 (Herbicidal rate of 20% or more and less than 40%) | 4 (Herbicidal rate of 70% or more and less than 90%) | 0 (Herbicidal rate of 5% or less (almost no effect)) | 
